According to patent US12404283B2, “c-MYC mRNA translation modulators and uses thereof in the treatment of cancer” (Anima Biotech Inc., priority 2022, dated 2025):
Numbered stars: 1 amine (or outer) side, 2 acyl side, 3 side chain; on linkers, the order of the positions; unused ones are H or OH. Bridge positions count the residues as written; N and C are the ends. Square brackets hold non-standard residues; d marks the D form. Peptide text beside a SMILES is read from it. I, II: the chains in the order shown. Actinocin(9to1) = Cc1c2oc3c(C)ccc(C(=O)[*:1])c3nc-2c(C(=O)[*:2])c(N)c1=O; NMeV = CN[C@H](C(=O)O)C(C)C; Sar = CNCC(=O)O

What was measured:
c-Myc protein = c-Myc protein level in A549 cells; type: cell-based, human
Excerpt: (§1) A549 cells were exposed to vehicle, general transcription inhibitor actinomycin D or anti-c-Myc compound.
(§2) In gray, cell nuclei stained with DAPI; in red, c-Myc protein; in purple, c-Myc mRNA; in yellow, c-Myc transcription sites.

c-Myc mRNA [1] = assay: c-Myc mRNA level and transcription sites in A549 cells; type: cell-based, human
Excerpt: as §1, §2

c-Myc = c-Myc immunofluorescence assay; type: cell-based, human; conditions: A549 cells
In short: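 High-content imaging (20×) of PFA-fixed A549 cells immunostained for c-Myc with DAPI nuclei, after 24 h compound treatment at increasing concentrations. Per-cell c-Myc signal in identified cell regions was plotted against dose and fitted by logistic regression to give EC50.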

c-Myc mRNA [2] = assay: Fluorescent in situ hybridization (FISH) assay for c-Myc mRNA; type: cell-based, human; conditions: A549 cells, 4 hours, FIG. 3 lower panel
Description: A549 cells were incubated with compounds for 24 hours (FIG. 3, upper panel) and c-Myc protein detected by immunofluorescence. In parallel, A549 cells were incubated with compounds for 4 hours and c-Myc mRNA was visualized by micrscopy using c-Myc mRNA specific fluorescent-tagged probes (FIG. 3, lower panel).
A549 cells were grown in 384-wells plates (Perkin Elmer, Cat. 6057300) for 48 hours, treated with compounds for 4 hours and then fixed for 20 min in 4% paraformaldehyde. Next day, permeabilization was done for 90 min at 4° C., using 70% ethanol. Then, the cells were incubated for 10 min with 10% formamide in 10% saline-sodium citrate. Fluorescently labeled custome DNA probes that target c-Myc (Cy3, BioSearch Technologies, Cat. SMF-1063-5) and GAPDH (Cy5, BioSearch Technologies, Cat. SMF-2019-1) mRNAs were hybridized overnight at 37° C. in a dark chamber in 10% formamide. The next day, cells were washed twice with 10% formamide for 30 min. […]
Following RNA FISH experiments, images of cells were taken with Operetta (Perkin Elmer, USA), a wide-field fluorescence microscope at ×63 magnification. […] In Columbus, cells were identified by their nucleus, using the “Find Nuceli” module, cytoplasm was detected based on the FISH-channel, and single mRNAs in the cytoplasm and transcription sites in the nucleus were detected using “Find Spots” module. […]

A549 xenografts [3] = assay: A549 xenograft tumor growth in nude mice; type: in vivo; conditions: NMRI female nude mice, 3 mg/kg twice a week for 49 days, p<0.05
Description: Relative tumor volumes of A549 xenografts in NMRI female nude mice after treatment with compound 3 mg/kg twice a week for 49 days. Error bars represent median±SEM, n=10 mice at each time point and analyzed by one-tailed T-TEST in Prism for *p<0.05

A549 xenografts [4] = assay: A549 xenograft model in nude mice; type: in vivo, NMRI nude female mice; conditions: 3 mg/kg i.p. twice a week for 49 days, FIG. 5
Description: NMRI nude female mice of 6-8 weeks of age were acclimated after shipping for >4 days. A549 cells, 5×10^6 in 100 ul Matrigel:PBS (50:50), were subcutaneously injected into flanks of mice. When the tumor size reached 80 to 200 mm^3, mice were grouped with similar average tumor size in each group, 10 animals per group. Compounds were dissolved in 10% DMSO, 10% Solutol, 80% water. Compounds were given i.p. for 49 days at 3 mg/kg twice a week. Caliper measurement of tumor size was done twice a week.
Error bars represent median±SEM, n=10 mice at each time point and analyzed by one-tailed T-TEST in Prism for *p<0.05.

Structure (SMILES) | c-Myc protein level (c-Myc protein) | c-Myc mRNA level (c-Myc mRNA [1]) | c-Myc transcription sites (c-Myc mRNA [1]) | c-Myc protein detected by immunofluorescence (c-Myc; 24 hours, FIG. 3 upper panel) | c-Myc mRNA in the cytoplasm (c-Myc mRNA [2]) | c-Myc transcription site (spots inside the nucleus) (c-Myc mRNA [2]) | c-Myc-dependent tumor growth (relative tumor volumes) (A549 xenografts [3]) | Myc Efficacy (−LogEC50) (c-Myc; 24 hours treatment, anti-c-Myc immunofluorescence) | c-Myc-dependent tumor growth (relative tumor volume) (A549 xenografts [4])
Cc1c2oc3c(C)ccc(C(=O)N[C@@H]4C(=O)N[C@H](C(C)C)C(=O)N5CCC[C@H]5C(=O)N(C)CC(=O)N(C)[C@@H](C(C)C)C(=O)O[C@@H]4C)c3nc-2c(C(=O)N[C@@H]2C(=O)N[C@H](C(C)C)C(=O)N3CCC[C@H]3C(=O)N(C)CC(=O)N(C)[C@@H](C(C)C)C(=O)O[C@@H]2C)c(N)c1=O [actinomycin D] (I: T[dV]P[Sar][NMeV] / II: T[dV]P[Sar][NMeV]; ester I:1-I:C, II:1-II:C; linker I:N-II:N via Actinocin(9to1)) | significant decrease | complete reduction | complete reduction | reduced c-Myc protein | mRNA accumulation in the cytoplasm | inhibited transcription site |  |  | 
NC1(c2ccc(-c3cn4c(n3)sc3cc(C(=O)NCCCN5CCCCC5)ccc34)cc2)CC1 [compound 332, 2-(4-(1-aminocyclopropyl)phenyl)-N-(3-(piperidin-1-yl)propyl)benzo[d]imidazo [2,1-b]thiazole-7-carboxamide] |  |  |  |  |  |  | inhibited c-Myc-dependent tumor growth in-vivo | +++ (+++ ≥6) | inhibited c-Myc-dependent tumor growth in-vivo
